Measured values as given in US11572399B2, “Long-acting GIP peptide analogues” (University of Copenhagen, priority 2017, dated 2023).
Peptide text beside a SMILES is read from it. * marks the point of attachment. C16 diacid = O=C(O)CCCCCCCCCCCCCCC(=O)*

Key:
[1] = target: T1, human GIP receptor (Homo sapiens, UniProt P48546); experiment: 125I-human GIP competition binding assay, in the presence and absence of 2% HSA; settings: for Fold change HSA (2%)/Casein (0.1%): IC50 (plus HSA)/IC50 (minus HSA); for Binding (+/−HSA) Fold: fold change +HSA/−HSA; for Fold change in affinity, IC50 (plus HSA)/IC50 (minus HSA): presence vs absence of 2% HSA, proxy for albumin binding; for Ki: absence of HSA;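 for all read-outs here: nonspecific binding taken as radioligand bound to untransfected cells, IC50 obtained from nonlinear regression fits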
T1 construct: host or cells: COS-7, transient transfection (calcium phosphate), cDNA in pCMV-Script
T1 sequence (P48546 22-466): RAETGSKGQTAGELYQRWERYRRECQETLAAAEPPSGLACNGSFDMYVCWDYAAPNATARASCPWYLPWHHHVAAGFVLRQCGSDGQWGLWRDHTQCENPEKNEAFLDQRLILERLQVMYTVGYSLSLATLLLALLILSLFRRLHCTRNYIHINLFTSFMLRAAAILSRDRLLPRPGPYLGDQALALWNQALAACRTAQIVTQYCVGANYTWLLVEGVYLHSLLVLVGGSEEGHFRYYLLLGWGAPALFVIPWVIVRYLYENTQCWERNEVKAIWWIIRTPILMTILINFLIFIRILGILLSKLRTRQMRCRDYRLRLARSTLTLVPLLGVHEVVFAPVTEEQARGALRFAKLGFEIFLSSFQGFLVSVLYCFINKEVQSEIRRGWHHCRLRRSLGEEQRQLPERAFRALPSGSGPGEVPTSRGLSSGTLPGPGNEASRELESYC

[2] = target: T1, human GIP receptor; experiment: cAMP accumulation assay, antagonism of a GIP-mediated cAMP response (50-80% of max); assay type: cell-based; settings: for Fold change of IC50 versus GIP(5-30)NH2: fold change of IC50 from GIP(5-30)NH2
Protocol: The day after, the cells were washed twice with Hepes buffered saline (HBS) buffer and incubated with HBS and 1 mM 3-isobutyl-1-methylxanthine (IBMX) for 30 min at 37° C. […] The HitHunter™ cAMP XS assay (DiscoveRx) was carried out according to the manufacturer's instructions.

[3] = target: T1, human GIP receptor; experiment: cAMP accumulation assay, agonism (ligand alone); assay type: cell-based; settings: Table 1; for Emax: COS-7, intrinsic cAMP activity, COS-7 cells; for EC50: given as log EC50 (negative sign), read-out: cAMP agonism EC50 (log) (converted)
[4] = binding in 0.1% casein (absence of HSA), log value, read-out: logIC50 0.1% casein (converted)
[5] = antagonism of GIP-mediated cAMP response, COS-7 cells, read-out: cAMP accumulation IC50
[6] = transiently transfected COS-7 cells, Table 1 and text, read-out: cAMP antagonism nM (IC50, antagonistic potency)
[7] = binding in presence of 2% HSA, read-out: logIC50 2% HSA (converted)
[8] = heterologous competition binding, transiently transfected COS-7 cells expressing the human GIP receptor, read-out: Binding

Structure (SMILES)	Fold change HSA (2%)/Casein (0.1%) [1]	IC50 [1, 4] [nM]	Binding (+/−HSA) Fold [1]	Fold change in affinity, IC50 (plus HSA)/IC50 (minus HSA) [1] [fold]	IC50 [2, 5] [nM]	Fold change of IC50 versus GIP(5-30)NH2 [2]	IC50 [2, 6] [nM]	Emax [3] [%]	IC50 [1, 7] [nM]	IC50 [1, 8] [nM]	Ki [1] [nM]	Ability to antagonize the GIP-mediated cAMP response (in words) [2]	EC50 [3] [nM]
CC[C@H](C)[C@H](NC(=O)[C@H](CO)NC(=O)[C@H](Cc1ccc(O)cc1)NC(=O)[C@H](CCCCNC(=O)CCCCCCCCCCCCCCC(=O)O)NC(=O)[C@H](CO)NC(=O)[C@@H](NC(=O)[C@H](Cc1ccccc1)NC(=O)[C@@H](N)[C@@H](C)O)[C@@H](C)CC)C(=O)N[C@@H](C)C(=O)N[C@@H](CCSC)C(=O)N[C@@H](CC(=O)O)C(=O)N[C@@H](CCCCN)C(=O)N[C@H](C(=O)N[C@@H](Cc1c[nH]cn1)C(=O)N[C@@H](CCC(N)=O)C(=O)N[C@@H](CCC(N)=O)C(=O)N[C@@H](CC(=O)O)C(=O)N[C@@H](Cc1ccccc1)C(=O)N[C@H](C(=O)N[C@@H](CC(N)=O)C(=O)N[C@@H](Cc1c[nH]c2ccccc12)C(=O)N[C@@H](CC(C)C)C(=O)N[C@@H](CC(C)C)C(=O)N[C@@H](C)C(=O)N[C@@H](CCC(N)=O)C(=O)N[C@@H](CCCCN)C(N)=O)C(C)C)[C@@H](C)CC [AT171, [hGIP(5-30)NH2[D9K]-C16diacid/9]] (H-TFISK(C16 diacid)YSIAMDKIHQQDFVNWLLAQK-NH2; N-terminus assumed)	8.3	79.4	6.3	8.3	31.6	1.1	35	0	–	–	–	–	–
CC[C@H](C)[C@H](NC(=O)[C@H](CO)NC(=O)[C@H](CCCCNC(=O)CCCCCCCCCCCCCCC(=O)O)NC(=O)[C@H](CC(=O)O)NC(=O)[C@H](CO)NC(=O)[C@@H](NC(=O)[C@H](Cc1ccccc1)NC(=O)[C@@H](N)[C@@H](C)O)[C@@H](C)CC)C(=O)N[C@@H](C)C(=O)N[C@@H](CCSC)C(=O)N[C@@H](CC(=O)O)C(=O)N[C@@H](CCCCN)C(=O)N[C@H](C(=O)N[C@@H](Cc1c[nH]cn1)C(=O)N[C@@H](CCC(N)=O)C(=O)N[C@@H](CCC(N)=O)C(=O)N[C@@H](CC(=O)O)C(=O)N[C@@H](Cc1ccccc1)C(=O)N[C@H](C(=O)N[C@@H](CC(N)=O)C(=O)N[C@@H](Cc1c[nH]c2ccccc12)C(=O)N[C@@H](CC(C)C)C(=O)N[C@@H](CC(C)C)C(=O)N[C@@H](C)C(=O)N[C@@H](CCC(N)=O)C(=O)N[C@@H](CCCCN)C(N)=O)C(C)C)[C@@H](C)CC [AT172, [hGIP(5-30)NH2[Y10K]-C16diacid/10]] (H-TFISDK(C16 diacid)SIAMDKIHQQDFVNWLLAQK-NH2; N-terminus assumed)	3.8	251	2.8	–	–	14.1	–	0	955	252	–	–	–
CC[C@H](C)[C@H](NC(=O)[C@H](CCCCNC(=O)CCCCCCCCCCCCCCC(=O)O)NC(=O)[C@H](Cc1ccc(O)cc1)NC(=O)[C@H](CC(=O)O)NC(=O)[C@H](CO)NC(=O)[C@@H](NC(=O)[C@H](Cc1ccccc1)NC(=O)[C@@H](N)[C@@H](C)O)[C@@H](C)CC)C(=O)N[C@@H](C)C(=O)N[C@@H](CCSC)C(=O)N[C@@H](CC(=O)O)C(=O)N[C@@H](CCCCN)C(=O)N[C@H](C(=O)N[C@@H](Cc1c[nH]cn1)C(=O)N[C@@H](CCC(N)=O)C(=O)N[C@@H](CCC(N)=O)C(=O)N[C@@H](CC(=O)O)C(=O)N[C@@H](Cc1ccccc1)C(=O)N[C@H](C(=O)N[C@@H](CC(N)=O)C(=O)N[C@@H](Cc1c[nH]c2ccccc12)C(=O)N[C@@H](CC(C)C)C(=O)N[C@@H](CC(C)C)C(=O)N[C@@H](C)C(=O)N[C@@H](CCC(N)=O)C(=O)N[C@@H](CCCCN)C(N)=O)C(C)C)[C@@H](C)CC [AT173, [hGIP(5-30)NH2[S11K]-C16diacid/11]] (H-TFISDYK(C16 diacid)IAMDKIHQQDFVNWLLAQK-NH2; N-terminus assumed)	7.4	7.94	9.7	7.4	–	0.3	10	0	–	8	6	highest antagonistic potencies	–
CC[C@H](C)[C@H](NC(=O)[C@H](CCCCN)NC(=O)[C@H](CC(=O)O)NC(=O)[C@H](CCSC)NC(=O)[C@H](C)NC(=O)[C@H](CCCCNC(=O)CCCCCCCCCCCCCCC(=O)O)NC(=O)[C@H](CO)NC(=O)[C@H](Cc1ccc(O)cc1)NC(=O)[C@H](CC(=O)O)NC(=O)[C@H](CO)NC(=O)[C@@H](NC(=O)[C@H](Cc1ccccc1)NC(=O)[C@@H](N)[C@@H](C)O)[C@@H](C)CC)C(=O)N[C@@H](Cc1c[nH]cn1)C(=O)N[C@@H](CCC(N)=O)C(=O)N[C@@H](CCC(N)=O)C(=O)N[C@@H](CC(=O)O)C(=O)N[C@@H](Cc1ccccc1)C(=O)N[C@H](C(=O)N[C@@H](CC(N)=O)C(=O)N[C@@H](Cc1c[nH]c2ccccc12)C(=O)N[C@@H](CC(C)C)C(=O)N[C@@H](CC(C)C)C(=O)N[C@@H](C)C(=O)N[C@@H](CCC(N)=O)C(=O)N[C@@H](CCCCN)C(N)=O)C(C)C [AT174, [hGIP(5-30)NH2[I12K]-C16diacid/12]] (H-TFISDYSK(C16 diacid)AMDKIHQQDFVNWLLAQK-NH2; N-terminus assumed)	3.5	79.4	6.1	–	–	0.9	–	0	–	80	–	highest antagonistic potencies	–
CC[C@H](C)[C@H](NC(=O)[C@H](CO)NC(=O)[C@H](Cc1ccc(O)cc1)NC(=O)[C@H](CC(=O)O)NC(=O)[C@H](CO)NC(=O)[C@@H](NC(=O)[C@H](Cc1ccccc1)NC(=O)[C@@H](N)[C@@H](C)O)[C@@H](C)CC)C(=O)N[C@@H](C)C(=O)N[C@@H](CCCCNC(=O)CCCCCCCCCCCCCCC(=O)O)C(=O)N[C@@H](CC(=O)O)C(=O)N[C@@H](CCCCN)C(=O)N[C@H](C(=O)N[C@@H](Cc1c[nH]cn1)C(=O)N[C@@H](CCC(N)=O)C(=O)N[C@@H](CCC(N)=O)C(=O)N[C@@H](CC(=O)O)C(=O)N[C@@H](Cc1ccccc1)C(=O)N[C@H](C(=O)N[C@@H](CC(N)=O)C(=O)N[C@@H](Cc1c[nH]c2ccccc12)C(=O)N[C@@H](CC(C)C)C(=O)N[C@@H](CC(C)C)C(=O)N[C@@H](C)C(=O)N[C@@H](CCC(N)=O)C(=O)N[C@@H](CCCCN)C(N)=O)C(C)C)[C@@H](C)CC [AT176, [hGIP(5-30)NH2[M14K]-C16diacid/14]] (H-TFISDYSIAK(C16 diacid)DKIHQQDFVNWLLAQK-NH2; N-terminus assumed)	4.9	126	5.1	–	105	3.8	121	12	562	114	–	–	100
CC[C@H](C)[C@H](NC(=O)[C@H](CO)NC(=O)[C@H](Cc1ccc(O)cc1)NC(=O)[C@H](CC(=O)O)NC(=O)[C@H](CO)NC(=O)[C@@H](NC(=O)[C@H](Cc1ccccc1)NC(=O)[C@@H](N)[C@@H](C)O)[C@@H](C)CC)C(=O)N[C@@H](C)C(=O)N[C@@H](CCSC)C(=O)N[C@@H](CCCCNC(=O)CCCCCCCCCCCCCCC(=O)O)C(=O)N[C@@H](CCCCN)C(=O)N[C@H](C(=O)N[C@@H](Cc1c[nH]cn1)C(=O)N[C@@H](CCC(N)=O)C(=O)N[C@@H](CCC(N)=O)C(=O)N[C@@H](CC(=O)O)C(=O)N[C@@H](Cc1ccccc1)C(=O)N[C@H](C(=O)N[C@@H](CC(N)=O)C(=O)N[C@@H](Cc1c[nH]c2ccccc12)C(=O)N[C@@H](CC(C)C)C(=O)N[C@@H](CC(C)C)C(=O)N[C@@H](C)C(=O)N[C@@H](CCC(N)=O)C(=O)N[C@@H](CCCCN)C(N)=O)C(C)C)[C@@H](C)CC [AT177, [hGIP(5-30)NH2[D15K]-C16diacid/15]] (H-TFISDYSIAMK(C16 diacid)KIHQQDFVNWLLAQK-NH2; N-terminus assumed)	3.8	–	3.8	–	–	1.3	59	30	–	134	117	–	100
